Values quoted from earlier work in patent US6967090B2, “Nucleic acid and protein sequences of bovine epidermal growth factor” (Her Majesty the Queen in right of Canada, as represented by …, priority 2001, dated 2005).

How the values were obtained:
gastric acid secretion = details: Hollenberg and Gregory 1980
EGF receptor = EGF receptor (Homo sapiens, UniProt P00533); details: Tadaki and Niyogi, 1993
[1] = daily, 100 μg/kg body weight for nine days; U.S. Pat. No. 5,753,622
enteric infections = details: oral administration; Buret et al., 1997
rotavirus = details: piglets infected with rotavirus; Zijlstra et al., 1994
[2] = tested on: jejunal brush-border membranes; details: rodent
gut cells = details: piglet; WO 88/04180

human EGF, lacking the last five amino acids on the COOH end: truncated human EGF lacking the last five amino acids on the COOH end (NSDSECPLSHDGYCLHDGVCMYIEALDKYACNCVVGYIGERCQYRDLK; not fully specified; Epidermal growth factor; UniProt P01133 971-1018, looked up, fragment)
capacity to inhibit gastric acid secretion (gastric acid secretion): retains its capacity to inhibit gastric acid secretion

human EGF: human EGF variant with tyrosine replaced by phenylalanine at position 13 (NSDSECPLSHDGFCLHDGVCMYIEALDKYACNCVVGYIGERCQYRDLKWWELR; not fully specified; Epidermal growth factor; UniProt P01133 971-1023, looked up, variant Y13F)
effect of substitution on binding to receptor (EGF receptor): little effect on the binding

EGF: 6 kDa polypeptide composed of 53 amino acids; species of origin not stated in the cited studies
weight gain [1]: enhances weight gain
rate of enteric infections (enteric infections): reduces the rate of enteric infections
reduction in weight gain caused by infection (enteric infections): prevents the reduction in weight gain caused by infection
intestinal functions (rotavirus): improves intestinal functions
electrolytes, glucose and proline transport [2]: increases electrolytes, glucose and proline transport
lactase and alkaline phosphatase activities (gut cells): without any marked effect
sucrase and maltase activity (gut cells): enhancing both sucrase and maltase activity
